Results published in ChEMBL document CHEMBL6096730, “Unlocking the Therapeutic Potential of Natural Products for Alzheimer's Disease” (J Med Chem, 2025).

Legend:
Acetylcholinesterase = Acetylcholinesterase (Homo sapiens, UniProt P22303); experiment: Inhibition of human erythrocyte acetylcholinesterase using acetylthiocholine as substrate by Ellman's method
[1] = target: Amyloid-beta precursor protein (Homo sapiens) (UniProt P05067); experiment: Inhibition of self-mediated Amyloid beta (1 to 42) (unknown origin) aggregation at 20 uM measured every 5 mins by ThT fluorescence based assay relative to control
Amyloid-beta precursor protein (Homo sapiens), sequence (P05067 whole entry): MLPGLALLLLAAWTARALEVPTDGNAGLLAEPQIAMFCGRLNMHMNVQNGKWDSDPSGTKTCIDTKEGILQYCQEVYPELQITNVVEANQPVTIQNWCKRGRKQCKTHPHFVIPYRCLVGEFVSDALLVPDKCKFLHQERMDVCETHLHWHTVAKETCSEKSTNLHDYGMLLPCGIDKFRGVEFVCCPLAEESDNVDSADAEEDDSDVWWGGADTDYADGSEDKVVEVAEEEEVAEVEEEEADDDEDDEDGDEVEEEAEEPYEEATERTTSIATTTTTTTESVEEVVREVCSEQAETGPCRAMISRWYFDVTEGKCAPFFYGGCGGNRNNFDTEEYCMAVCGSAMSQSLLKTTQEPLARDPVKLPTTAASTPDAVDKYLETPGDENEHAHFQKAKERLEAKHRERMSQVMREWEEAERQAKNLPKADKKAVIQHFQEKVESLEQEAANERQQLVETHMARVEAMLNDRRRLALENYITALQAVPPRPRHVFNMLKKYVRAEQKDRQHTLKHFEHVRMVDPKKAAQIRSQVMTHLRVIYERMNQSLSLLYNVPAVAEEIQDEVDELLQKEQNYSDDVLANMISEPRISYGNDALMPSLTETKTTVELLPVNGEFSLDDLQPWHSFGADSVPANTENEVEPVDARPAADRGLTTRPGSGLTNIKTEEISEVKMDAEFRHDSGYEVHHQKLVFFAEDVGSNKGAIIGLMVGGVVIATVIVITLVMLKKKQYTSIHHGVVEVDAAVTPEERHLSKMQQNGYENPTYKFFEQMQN

Acetylcholinesterase, sequence (P22303 whole entry): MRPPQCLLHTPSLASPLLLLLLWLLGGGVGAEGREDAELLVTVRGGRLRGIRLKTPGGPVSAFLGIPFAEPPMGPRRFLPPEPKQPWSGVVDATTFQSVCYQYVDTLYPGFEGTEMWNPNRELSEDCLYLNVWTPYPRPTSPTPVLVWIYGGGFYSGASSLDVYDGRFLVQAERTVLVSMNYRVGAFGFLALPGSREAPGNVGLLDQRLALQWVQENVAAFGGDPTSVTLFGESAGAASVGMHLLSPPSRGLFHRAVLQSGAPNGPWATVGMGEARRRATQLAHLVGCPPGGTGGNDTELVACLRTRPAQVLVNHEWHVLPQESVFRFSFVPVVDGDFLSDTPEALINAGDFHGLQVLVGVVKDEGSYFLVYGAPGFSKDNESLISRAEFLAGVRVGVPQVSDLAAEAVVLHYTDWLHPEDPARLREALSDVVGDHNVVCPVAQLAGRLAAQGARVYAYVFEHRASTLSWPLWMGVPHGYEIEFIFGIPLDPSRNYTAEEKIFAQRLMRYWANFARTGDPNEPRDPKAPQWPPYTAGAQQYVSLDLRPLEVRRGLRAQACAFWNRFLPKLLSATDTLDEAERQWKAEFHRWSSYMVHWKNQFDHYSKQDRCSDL

inhibition [1]	Structure (SMILES)	IC50 (Acetylcholinesterase)
	COc1ccc([C@H]2O[C@@H](O)[C@H]3[C@@H]2C(=O)O[C@@H]3c2cc(OC)c3c(c2)OCO3)cc1OC	300 nM
81%	COc1cc([C@H](O)[C@H](C)Oc2ccc(CCCO)cc2O)ccc1O	
